TGI and GI50 data for 20 molecules are collected here from PubChem BioAssay (NCI).

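Five compound concentrations were applied to cells in 96-well plates for 48 hours; endpoints were derived by simple linear interpolation of the resulting dose-response curve. GI50 = concentration required for 50% inhibition of growth. TGI marks complete inhibition of growth.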

Among the test systems are T-47D breast; MDA-N; BT-549 breast; PC-3 prostate; HS 578T breast; P388 leukemia; P388/ADR leukemia; SN12K1 renal; RXF-631 renal.
Common to all, as to assay: NCI tumour cell line growth inhibition, 48 h

For the molecule `CC(/C=C/c1ccc([N+](=O)[O-])o1)=N/N1CC(CN2CCOCC2)OC1=O` (stereo not drawn), the TGI in the assay with T-47D breast was 41.2 µM; in the assay on MDA-N, 35.6 µM; in the assay with BT-549 breast, 24.2 µM; in the assay with PC-3 prostate, 68 µM; in the assay with HS 578T breast, above 100 µM.
As to `CCOc1ccc(/C=C/[N+](=O)[O-])cc1`, the figures for the GI50 with T-47D breast, in the assay on PC-3 prostate and in the assay with HS 578T breast were 17.6 µM, 12.4 µM and 35.3 µM, respectively. In addition, the TGI was 42.8 µM with T-47D breast, 33.7 µM in the assay with PC-3 prostate and above 100 µM in the assay with HS 578T breast.
With `CC(C)=CC(=O)OC1C2C(C)C(=O)OC2C(O)C(C)C2C=CC(=O)C21C` (stereo not drawn), the TGI stood at 1.29 µM in the assay with P388 leukemia, 4.01 µM in the assay with P388/ADR leukemia and 6.28 µM with SN12K1 renal.
`O=C(Nc1ccc(Cl)cc1)/C(Cc1cccc[n+]1[O-])=N\Nc1ccc([N+](=O)[O-])cc1[N+](=O)[O-]` returned a TGI in the assay on RXF-631 renal above 100 µM.
`Cc1cccc2c(N)c3cccc(C(=O)NCCN(C)C)c3nc12`: the values for the TGI in the assay on T-47D breast, in the assay on BT-549 breast and in the assay on PC-3 prostate were 0.513 µM, 4.16 µM and 0.357 µM, respectively.
Regarding `CN1CCN(Cc2ccc(NC(=O)c3ccc(C#N)c(C#Cc4cnc(N)c5ncccc45)c3)cc2C(F)(F)F)CC1`, in the assay with T-47D breast, the GI50 was 28.6 µM and the TGI is above 100 µM. In addition, in the assay with BT-549 breast, the GI50 was 12.7 µM and the TGI amounted to 41.9 µM.
In the case of `c1ccc2c(c1)nc1n2CSC1`, the TGI in the assay with RXF-631 renal was above 100 µM.
Regarding `CCOP(=O)(OCC)C(Cc1ccc(OC)c(OC)c1)N=C(c1ccccc1)c1ccccc1` (stereo not drawn), the TGI was 56.8 µM in the assay on T-47D breast, above 100 µM in the assay on MDA-N, above 100 µM in the assay with BT-549 breast and above 100 µM in the assay with PC-3 prostate.
Molecule `CC1(C)CCc2cc3c(-c4ccccc4)cc(=O)oc3cc2O1` gave a TGI with RXF-631 renal above 100 µM.
In the case of `Cc1nc2ccccc2c(=O)n1CC(=O)O`, the TGI in the assay with P388 leukemia, in the assay on P388/ADR leukemia and in the assay on SN12K1 renal was above 100 µM in each case.
Molecule `CCCCN(CCCC)CCCCNc1c(C)cnc2cc(Cl)ccc12` gave a TGI with RXF-631 renal of 33.5 µM.
For the molecule `O=C(Nc1nc2ccc([N+](=O)[O-])cc2[n+]([O-])n1)C(F)(F)F`, the TGI is above 100 µM in the assay on T-47D breast, 34 µM in the assay on MDA-N, above 100 µM with BT-549 breast and above 100 µM in the assay with PC-3 prostate.
As for `CC(C)=CCc1c(C)cc2cc3c(c(O)c2c1O)C(O)=CC(=O)C3(CC=C(C)C)C/C=C(\C)CO` (stereo not drawn), the values for the TGI with P388 leukemia, in the assay with P388/ADR leukemia and in the assay with SN12K1 renal were 101 µM, 80 µM and 62 µM, respectively.
As for `CCOc1ccc2c(ccc(/C=C\c3cc(C)c4cccnc4c3O)[n+]2C)c1`, the TGI in the assay on T-47D breast was 6.2 µM; in the assay on BT-549 breast, 38.1 µM; in the assay on PC-3 prostate it was 6.14 µM; in the assay on HS 578T breast, above 100 µM.
Consider `Cc1ccc(S(=O)(=O)Oc2cc(S(=O)(=O)O)cc3cc(S(=O)(=O)O)cc(N)c23)cc1`, for which the TGI in the assay on T-47D breast, in the assay on MDA-N, in the assay with BT-549 breast, in the assay on PC-3 prostate and with HS 578T breast was above 100 µM each time.
On to `COc1cc2c3c(n(CCN(C)C)c(=O)c2cc1OC)-c1cc2c(cc1C3=O)OCO2`, for which the GI50 with T-47D breast was 27.1 µM; in the assay with BT-549 breast it was above 47.7 µM; with PC-3 prostate it was 31.4 µM; in the assay with HS 578T breast, above 84.9 µM. In addition, the TGI in the assay on T-47D breast, with BT-549 breast, in the assay with PC-3 prostate and in the assay with HS 578T breast was above 100 µM throughout.
Take `Nc1ncnc2c1ncn2C1CCC(CO)O1` (stereo not drawn): the TGI is above 100 µM with P388 leukemia, above 77.4 µM in the assay with P388/ADR leukemia and above 69.5 µM in the assay with SN12K1 renal.
Take `CCN(CC)CCCC(Nc1c2ccc(Cl)cc2nc2ccc(OC)cc12)c1ccc(F)cc1` (stereo not drawn): the GI50 in the assay on T-47D breast is 2.15 µM; with BT-549 breast, 12.8 µM; in the assay with PC-3 prostate it was 2.7 µM; in the assay on HS 578T breast, 1.69 µM. The TGI with T-47D breast worked out at 5.66 µM; in the assay on BT-549 breast, 26.4 µM; in the assay with PC-3 prostate, 9.22 µM; in the assay on HS 578T breast, 4.17 µM.
Turning to `C[C@]12C=CC(=O)C=C1CC[C@@H]1[C@@H]2C(=O)C[C@@]2(C)[C@H]1CC[C@]2(O)C(=O)CO`, the TGI in the assay with T-47D breast, in the assay on MDA-N, in the assay with BT-549 breast, in the assay on PC-3 prostate and in the assay on HS 578T breast was above 100 µM throughout.
For the molecule `[C-]#[O+].[Cl][Sn]([Cl])[Cl].[Cl][Sn]([Cl])[Cl].[Pt].c1ccncc1`, the GI50 in the assay on P388 leukemia was 33.4 µM; in the assay on P388/ADR leukemia, 35.4 µM; with SN12K1 renal, above 75.6 µM. In addition, the TGI in the assay with P388 leukemia, in the assay with P388/ADR leukemia and with SN12K1 renal was above 100 µM throughout.
